In PMC7523589 (Analytical methods : advancing methods and applications, 2020):
Values belong to the compound of their own block, whether it stands above or below them.

Tests used:
[1] = biological target: full-length Plk1 (Homo sapiens, UniProt P53350); assay: fluorescence recovery assay, competition of inhibitors with probe 4; format: binding
[2] = biological target: T1, Plk1 (Homo sapiens, UniProt P53350); assay: fluorescence recovery assay, probe binding as a function of Plk1 concentration
[3] = biological target: T1, Plk1; settings: read-out: Reported Plk1 IC50 values; cited from earlier work

T1 sequence (P53350 whole entry): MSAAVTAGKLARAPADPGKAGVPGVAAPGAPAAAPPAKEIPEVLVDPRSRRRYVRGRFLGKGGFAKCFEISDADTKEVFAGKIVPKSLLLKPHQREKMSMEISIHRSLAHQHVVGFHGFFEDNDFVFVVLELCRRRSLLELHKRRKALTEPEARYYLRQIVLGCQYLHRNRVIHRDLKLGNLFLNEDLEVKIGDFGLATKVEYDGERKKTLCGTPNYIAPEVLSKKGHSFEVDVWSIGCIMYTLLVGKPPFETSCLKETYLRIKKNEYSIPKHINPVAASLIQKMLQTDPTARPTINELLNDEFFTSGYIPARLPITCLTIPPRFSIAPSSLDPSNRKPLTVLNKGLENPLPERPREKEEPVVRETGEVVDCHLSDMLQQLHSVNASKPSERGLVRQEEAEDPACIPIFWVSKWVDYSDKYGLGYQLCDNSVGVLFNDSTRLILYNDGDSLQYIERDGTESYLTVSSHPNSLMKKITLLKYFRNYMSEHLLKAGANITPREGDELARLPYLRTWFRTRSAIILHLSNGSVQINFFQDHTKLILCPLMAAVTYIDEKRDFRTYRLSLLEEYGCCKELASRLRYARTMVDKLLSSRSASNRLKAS
Chain of full-length Plk1 (P53350 whole entry): as above

IC50 [1]: 0.031 ± 0.00067 µM
Compound: CC[C@@H]1C(=O)N(C)c2cnc(Nc3ccc(C(=O)N[C@H]4CC[C@H](N5CCN(CC6CC6)CC5)CC4)cc3OC)nc2N1C(C)C [BI6727]

Kd ([2]; 10 nM of probe 4): 0.032 ± 0.00078 µM | Kd ([2]; 20 nM of probe 4): 0.033 ± 0.00098 µM | Kd ([2]; 30 nM of probe 4): 0.032 ± 0.0011 µM | Kd ([2]; 40 nM of probe 4): 0.038 ± 0.0018 µM | Kd ([2]; incubation time 15 minutes): 0.042 ± 0.0015 µM | Kd ([2]; incubation time 30 minutes): 0.034 ± 0.0011 µM | Kd ([2]; incubation time 60 minutes): 0.032 ± 0.0015 µM
Compound: FITC-PEG-Lys(BI2536) [compound 4]

Compound: SBE13
IC50 [3]: 0.0002 µM
